Source: US20260256792A1, “TREATMENT OF CHRONIC SPONTANEOUS URTICARIA BY ADMINISTERING (R)-2-[3-[4-AMINO-3-(2-FLUORO-4-PHENOXY-PHENYL)PYRAZOLO[3,4-D]PYRIMIDIN-1-YL]PIPERIDINE-1-CARBONYL]-4-METHYL-4-[4-(OXETAN-3-YL)PIPERAZIN-1-YL]PENT-2-ENENITRILE” (priority 2023, published 2026)

Tested on: moderate-to-severe chronic spontaneous urticaria (CSU)
Assay: Phase 2 CSU study: itch severity score over 7 days (ISS7)
Type: in vivo, human
Conditions: for RRD (%) for rilzabrutinib vs. placebo (ISS7 reduction of 5 points or more) / Responder n (%) (ISS7 reduction of 5 points or more) / Imputed non-responder n (%) (ISS7 reduction of 5 points or more) / Non-responder n (%) (ISS7 reduction of 5 points or more) / OR for rilzabrutinib vs. placebo (ISS7 reduction of 5 points or more): ITT population, 400 mg TID
Text: The study comprises a 12 week, randomized, double-blind, placebo-controlled, multi-center, dose-ranging efficacy and safety phase, followed by a 40 week open label extension (OLE) phase (see FIG. 1). The study consists of three phases and an optional OLE phase. […] Clinically, CSU is characterized by the spontaneous and recurrent appearance of pruritic hives. The proposed primary endpoints were the UAS7 at Week 12 in EU and EU reference countries and the ISS7 in the US. Regardless of where a participant was from, all assessments were the same. The UAS7 score is a composite score containing both the HSS7 and the ISS7. This allowed a global assessment of the two key components of urticaria: hives and itch. […] The UAS is a validated PRO measure. […] The daily UAS scores range from 0 to 6 point/day. […] Patients were to complete the UAS using the e-diary. […] The following secondary endpoints were to be analyzed using the same approach as for the primary endpoint: • Change from baseline in UAS7 at Week 4 • Change from baseline in UAS7 at Week 12 (for US and US reference countries) • Change from baseline in ISS7 at Week 12 (except US and US reference countries) • Change from baseline in HSS7 at Week 12

## CC(C)(C=C(C#N)C(=O)N1CCC[C@@H](n2nc(-c3ccc(Oc4ccccc4)cc3F)c3c(N)ncnc32)C1)N1CCN(C2COC2)CC1 [rilzabrutinib, (R)-2-[3-[4-amino-3-(2-fluoro-4-phenoxy-phenyl)pyrazolo[3,4-d]pyrimidin-1-yl]piperidine-1-carbonyl]-4-methyl-4-[4-(oxetan-3-yl)piperazin-1-yl]pent-2-enenitrile]
Week 3
  RRD (%) for rilzabrutinib vs. placebo (ISS7 reduction of 5 points or more): 37.3%
  Responder n (%) (ISS7 reduction of 5 points or more): 29 (70.7) n (%)
Week 4
  Imputed non-responder n (%) (ISS7 reduction of 5 points or more): 3 (7.3) n (%)
  Non-responder n (%) (ISS7 reduction of 5 points or more): 13 (31.7) n (%)
  OR for rilzabrutinib vs. placebo (ISS7 reduction of 5 points or more): 2.155
  RRD (%) for rilzabrutinib vs. placebo (ISS7 reduction of 5 points or more): 18.8%
  Responder n (%) (ISS7 reduction of 5 points or more): 28 (68.3) n (%)
Week 5
  Imputed non-responder n (%) (ISS7 reduction of 5 points or more): 3 (7.3) n (%)
  Non-responder n (%) (ISS7 reduction of 5 points or more): 11 (26.8) n (%)
  OR for rilzabrutinib vs. placebo (ISS7 reduction of 5 points or more): 2.433
  RRD (%) for rilzabrutinib vs. placebo (ISS7 reduction of 5 points or more): 20.9%
  Responder n (%) (ISS7 reduction of 5 points or more): 30 (73.2) n (%)
Week 6
  Imputed non-responder n (%) (ISS7 reduction of 5 points or more): 5 (12.2) n (%)
  Non-responder n (%) (ISS7 reduction of 5 points or more): 16 (39.0) n (%)
  OR for rilzabrutinib vs. placebo (ISS7 reduction of 5 points or more): 1.574
  Responder n (%) (ISS7 reduction of 5 points or more): 25 (61.0) n (%)
Week 7
  Imputed non-responder n (%) (ISS7 reduction of 5 points or more): 6 (14.6) n (%)
  Non-responder n (%) (ISS7 reduction of 5 points or more): 14 (34.1) n (%)
  OR for rilzabrutinib vs. placebo (ISS7 reduction of 5 points or more): 2.038
  RRD (%) for rilzabrutinib vs. placebo (ISS7 reduction of 5 points or more): 16.8%
  Responder n (%) (ISS7 reduction of 5 points or more): 27 (65.9) n (%)
Week 8
  Imputed non-responder n (%) (ISS7 reduction of 5 points or more): 8 (19.5) n (%)
  Non-responder n (%) (ISS7 reduction of 5 points or more): 13 (31.7) n (%)
  OR for rilzabrutinib vs. placebo (ISS7 reduction of 5 points or more): 1.839
  RRD (%) for rilzabrutinib vs. placebo (ISS7 reduction of 5 points or more): 14.6%
  Responder n (%) (ISS7 reduction of 5 points or more): 28 (68.3) n (%)
Week 9
  Imputed non-responder n (%) (ISS7 reduction of 5 points or more): 7 (17.1) n (%)
  Non-responder n (%) (ISS7 reduction of 5 points or more): 12 (29.3) n (%)
  OR for rilzabrutinib vs. placebo (ISS7 reduction of 5 points or more): 2.730
  RRD (%) for rilzabrutinib vs. placebo (ISS7 reduction of 5 points or more): 22.5%
  Responder n (%) (ISS7 reduction of 5 points or more): 29 (70.7) n (%)
Week 10
  Imputed non-responder n (%) (ISS7 reduction of 5 points or more): 7 (17.1) n (%)
  Non-responder n (%) (ISS7 reduction of 5 points or more): 14 (34.1) n (%)
  OR for rilzabrutinib vs. placebo (ISS7 reduction of 5 points or more): 1.669
  Responder n (%) (ISS7 reduction of 5 points or more): 27 (65.9) n (%)
Week 11
  Imputed non-responder n (%) (ISS7 reduction of 5 points or more): 6 (14.6) n (%)
  Non-responder n (%) (ISS7 reduction of 5 points or more): 12 (29.3) n (%)
  OR for rilzabrutinib vs. placebo (ISS7 reduction of 5 points or more): 1.699
  Responder n (%) (ISS7 reduction of 5 points or more): 29 (70.7) n (%)
ITT, 400 mg BID, Week 1
  ISS7 % Change difference for rilzabrutinib vs. placebo LS Mean (95% CI): −23.55%
  ISS7 % Change from baseline LS Mean (SE): −34.02 (5.28) %
  ISS7 Change difference for rilzabrutinib vs. placebo LS Mean (95% CI): −3.23
  ISS7 Change from baseline LS Mean (SE): −5.23 (0.78)
  ISS7 Post-baseline Mean (SD): 10.65 (5.86)
ITT, 400 mg BID, Week 2
  ISS7 % Change difference for rilzabrutinib vs. placebo LS Mean (95% CI): −16.63%
  ISS7 % Change from baseline LS Mean (SE): −36.11 (5.26) %
